Laboratory results published in patent US7462605B2, “Phosphoramidate compounds and methods of use” (Celmed Oncology (USA), Inc., priority 2002, dated 2008).

Key:
rHuTS = biological target: T1, rHuTS (Homo sapiens, UniProt P04818); experiment: Inhibition of rHuTS reactions by Tomudex and 5-FdUMP (initial rates); assay type: biochemical; details: for initial rate of rHuTS reaction with inhibitor / rate as % of No Inhibitor: inhibitor 500 nM
T1 construct: His tag (from pET-28a(+)) (N); made in house; host or cells: E. coli BL21 (DE3)/pET-28a(+)
T1 sequence (P04818 whole entry): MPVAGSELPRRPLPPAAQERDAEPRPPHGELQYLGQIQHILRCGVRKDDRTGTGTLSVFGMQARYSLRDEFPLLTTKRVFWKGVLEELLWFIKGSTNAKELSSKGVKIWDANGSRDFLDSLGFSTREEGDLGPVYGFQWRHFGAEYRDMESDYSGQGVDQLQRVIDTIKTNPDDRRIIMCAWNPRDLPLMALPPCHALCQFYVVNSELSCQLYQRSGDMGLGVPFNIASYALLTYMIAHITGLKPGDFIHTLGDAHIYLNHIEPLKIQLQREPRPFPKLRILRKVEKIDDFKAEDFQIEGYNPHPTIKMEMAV
Experimental: (§1) Enzyme Assays and Kinetic Measurements. Thymidylate synthase assays were done in 96 well Costar UV transparent plates in a reaction volume of 200 μL, consisting of 40 mM Tris pH 7.5, 25 mM MgCl2, 1 mM EDTA, 25 mM-mercaptoethanol, 125M dUMP, and 65 μM N5, N10-methylene tetrahydrofolate indicated. Tetrahydrofolate stock solutions were prepared by dissolving tetrahydrofolic acid (Sigma) directly into 0.2M Tris pH 7.5, 0.5 M-mercaptoethanol; stock solutions were stored at −80° C. N5, N10-methylene tetrahydrofolate was prepared by adding 12 μl of 3.8% formaldehyde to 1 ml of a 0.65 mM solution of tetrahydrofolate and incubating for 5 minutes at 37° C. N5, N10-methylene tetrahydrofolate was kept on ice and used within 2 hours of preparation.
Conversion of BVdUMP to fluorescent product(s) by thymidylate synthase was measured in 200 μl thymidylate synthase reactions containing 125M BVdUMP in 96 well Dynex Microfluor Black “U” bottom microtiter plates using an excitation wavelength of 340 nm and emission wavelength of 595 nm. Fluorescence was measured with a Tecan Spectrafluor Plus fluorimeter.

[1] = tested on: CCD18co normal colon epithelial cells; experiment: 96-well combination cytotoxicity assay (crystal violet) with NB1011, CCD18co; assay type: cell-based, human; details: drug combined with NB1011, CCD18co; for CI (average combination index): 96-well crystal violet, 72 hour
Experimental: (§2) Cell lines: Normal human colon epithelial cells (CCD18co) and skin fibroblasts (Det55 1) were purchased from ATCC (Rockville,Md.). MCF7TDX, human breast carcinoma cells resistant to 2 μM Tomudex were obtained from Dr. Patrick Johnston, Queens University, Belfast. […] The MCF7TDX and the H630R10 cell lines have been previously described in Drake, J. C. et al. (1996) and Copur, S. et al. (1995) respectively.
(§3) Culture Conditions: All cells were cultured under standard conditions of 37° C., 95% humidified air, 5% CO2 in RPMI 1640 culture medium containing 10% fetal calf serum (Life Technologies) and penicillin/streptomycin/fungizone. […] The medium was renewed or the cells were passaged about every three days to maintain optimal growth conditions. Normal cells were passaged a maximum of 15 times to avoid senescence.
(§4) Cytotoxicity Studies: 384-well interaction screening assay. 500 cells per well were transferred to a 384-well tissue culture plate (Corning Inc., Corning, N.Y.) and allowed to attach for 24 hours in standard culture conditions. Compounds were then applied in a bidirectional (checker board) pattern (Chou, T. C. and Talalay, P. (1984)). Following a 5-day incubation, the redox indicator dye, alamarBlue (AccuMed International, Westlake, Ohio) was added to each well at a 10% v/v ratio, and fluorescence was monitored at 535 excitation, 595 emission. Cytotoxic effect levels and drug interactions were assessed by the combination index method (Chou, T. C. and Talalay, P. (1984) and Bible, K. C. et al. (1997)), described briefly below. 96-well combination cytotoxicity assay. Exponentially growing cells were transferred at a density of 1.0-5.5×10^3 cells per well to a 96-well tissue culture plate and allowed to attach for 24 hours. Compounds were then applied in duplicate half log serial dilutions. Each compound was tested separately, and mixed together at a single molar ratio approximately equal to the ratio of the individual IC50 values. After an additional 72 hour incubation, cells were washed once with PBS and stained with 0.5% crystal violet in methanol. Plates were washed gently in water to remove unbound stain and allowed to dry overnight. […] Sigmoid curves were fit according to the Hill inhibitory Emax model, and IC50 calculated as the average of three or more separate determinations. Where applicable, the combination index for multiple drug effects was calculated according to the median-effect principle (Chou, T. C. and Talalay, P. (1984)) using the CalcuSyn software from Biosoft (Ferguson, Mo.). Briefly, the ICso and the slope parameter (m) for each agent alone were determined from the median effect plot, an x,y plot of log(D) vs log (fa/fu) based on Chou's median effect equation: fa/fu=(D/Dm)^m [Equation 1]
(§5) Only experiments with linear correlation coefficients (r) >0.9 were accepted for analysis. A combination index (CI) was then calculated to assess synergism or antagonism according to the following equation which assumes an independent mechanism of drug action (mutual exclusivity): CI=(D)1/(Dx)1+(D)2/(Dx)2+(D)1(D)2/(Dx)1 (Dx)2 [Equation 2]
(§6) where (D)1 and (D)2 are the concentrations of drug 1 and drug 2 which combined produce x% inhibition, and (Dx)1 and (Dx)2 are the concentrations of each drug which alone produce x% inhibition. CI=1 indicates an additive interaction, CI<1 indicates synergy, and CI>1 indicates antagonism. For each experiment Cl's from several different effect levels and concentrations of a constant molar ratio were averaged.

MCF7TDX cells = experiment: 96-well combination cytotoxicity assay (crystal violet) with NB1011, MCF7TDX; assay type: cell-based, human; details: drug combined with NB1011, MCF7TDX; for CI (average combination index): 96-well crystal violet, 72 hour; for Interaction: key: Syn = synergy; Ant = antagonism; Add = additivity
Experimental: Cell lines: Normal human colon epithelial cells (CCD18co) and skin fibroblasts (Det55 1) were purchased from ATCC (Rockville,Md.). MCF7TDX, human breast carcinoma cells resistant to 2 μM Tomudex were obtained from Dr. Patrick Johnston, Queens University, Belfast.
The medium was renewed or the cells were passaged about every three days to maintain optimal growth conditions. Normal cells were passaged a maximum of 15 times to avoid senescence.
Cytotoxicity Studies: 384-well interaction screening assay. 500 cells per well were transferred to a 384-well tissue culture plate (Corning Inc., Corning, N.Y.) and allowed to attach for 24 hours in standard culture conditions. […] 96-well combination cytotoxicity assay. […] Compounds were then applied in duplicate half log serial dilutions. Each compound was tested separately, and mixed together at a single molar ratio approximately equal to the ratio of the individual IC50 values. After an additional 72 hour incubation, cells were washed once with PBS and stained with 0.5% crystal violet in methanol. Plates were washed gently in water to remove unbound stain and allowed to dry overnight. […] Sigmoid curves were fit according to the Hill inhibitory Emax model, and IC50 calculated as the average of three or more separate determinations. […] Briefly, the ICso and the slope parameter (m) for each agent alone were determined from the median effect plot, an x,y plot of log(D) vs log (fa/fu) based on Chou's median effect equation: fa/fu=(D/Dm)^m [Equation 1]
as §5, §6

[2] = tested on: Det551 normal skin fibroblasts; experiment: 96-well combination cytotoxicity assay (crystal violet) with NB1011, Det551; assay type: cell-based, human; details: for Interaction: drug combined with NB1011, Det551; for CI (average combination index): drug combined with NB1011, Det551, 96-well crystal violet, 72 hour; for Interaction: key: Syn = synergy; Ant = antagonism; Add = additivity
Experimental: as §2, §3, §4, §5, §6

Lactobacillus casei TS = biological target: T2, Lactobacillus casei TS (Lacticaseibacillus casei, UniProt P00469); details: cited from earlier work
T2 sequence (P00469 1-316): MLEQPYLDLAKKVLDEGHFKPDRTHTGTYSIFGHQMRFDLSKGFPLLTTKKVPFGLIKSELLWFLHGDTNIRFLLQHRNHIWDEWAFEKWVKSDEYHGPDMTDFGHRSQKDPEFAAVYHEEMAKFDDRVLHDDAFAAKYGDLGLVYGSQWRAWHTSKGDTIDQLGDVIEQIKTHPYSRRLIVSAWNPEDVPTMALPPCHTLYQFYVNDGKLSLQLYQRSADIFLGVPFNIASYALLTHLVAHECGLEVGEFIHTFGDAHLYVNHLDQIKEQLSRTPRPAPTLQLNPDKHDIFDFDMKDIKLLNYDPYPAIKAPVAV

[3] = biological target: T3, rHuTS (recombinant human thymidylate synthase) (Homo sapiens, UniProt P04818); experiment: Enzyme kinetics of rHuTS with dUMP and BVdUMP; assay type: biochemical; details: rHuTS
T3 construct: His tag (from pET-28a(+)) (N); made in house; host or cells: E. coli BL21 (DE3)/pET-28a(+)
T3 sequence (P04818 whole entry): as the sequence (P04818 whole entry) above
Experimental: Enzyme Preparation. Cloned human thymidylate synthase plasmid pBCHTS was subcloned into E. coli. BL21 (DE3)/pET-28a(+) (Novagen) using the Ndel ñSacI insertion site, in order to add an amino terminal His tag. Enzyme was expressed in E. coli. by induction with IPTG, and purified by affinity chromatography on a Ni^2+ His Bind metal chelation resin (Novagen). The column Ni^2+ His Bind metal chelation column was washed with 20 mM Tris pH 7.9, 5 mM imidazole, 0.5M NaCl; thymidylate synthase activity was eluted with 20 mM Tris pH 7.9, 60 mM imidazole, 0.5M NaCl.
as §1
Enzyme kinetic constants (Km and Vmax) were determined for the human thymidylate synthase substrates dUMP and BVdUMP using the enzyme assay conditions described above. The initial rates of the enzyme reactions was determined by measuring the increase in A340 for the reaction with dUMP, and decrease in A294 for the reaction with BVdUMP. The catalytic efficiency of the enzyme (Kcat/Km) was calculated from the kinetic constants Km and Vmax.

[4] = BVdUMP reaction, read-out: Kl (of dUMP)

With `O=c1[nH]c(=O)n([C@H]2C[C@H](O)[C@@H](COP(=O)(O)O)O2)cc1F` [5-FdUMP] the “initial rate of rHuTS reaction with inhibitor” value (“initial rate … with inhibitor” below) (rHuTS; BVdUMP + THF) was 44 ± 2 RFU/min, the “rate as % of No Inhibitor” value (rHuTS; BVdUMP + THF) was “(40%)” and the “initial rate … with inhibitor” value (rHuTS; BVdUMP − THF) was 93 ± 13 RFU/min. For the same compound, the “rate as % of No Inhibitor” value (rHuTS; BVdUMP − THF) was “(129%)”, the “initial rate … with inhibitor” value (rHuTS; dUMP + THF) was 290 ± 70 nmol/min and the “rate as % of No Inhibitor” value (rHuTS; dUMP + THF) was “(19%)”.

In the case of `OCCN(CCO)c1nc(N2CCCCC2)c2nc(N(CCO)CCO)nc(N3CCCCC3)c2n1` [Dipyridamole, dipyridamole], the Interaction [1] is reported as “Ant”, the “CI (average combination index)” value [1] is reported as 1.30 and the Interaction (MCF7TDX cells) is reported as “Syn”. The “CI (average combination index)” value (MCF7TDX cells) was 0.51, the Interaction [2] was “Add” and the “CI (average combination index)” value [2] was 1.17.

For `COc1cccc2c1C(=O)c1c(O)c3c(c(O)c1C2=O)C[C@@](O)(C(=O)CO)C[C@@H]3O[C@H]1C[C@H](N)[C@H](O)[C@H](C)O1` [Doxorubicin], the Interaction (MCF7TDX cells) was “Ant”.

For `O=C1[O][Pt]2([NH][C@@H]3CCCC[C@H]3[NH]2)[O]C1=O` [Oxaliplatin], the Interaction (MCF7TDX cells) was “Ant”.

For `Cc1nc2ccc(CN(C)c3ccc(C(=O)N[C@@H](CCC(=O)O)C(=O)O)s3)cc2c(=O)[nH]1` [Tomudex], the “initial rate … with inhibitor” value (rHuTS; BVdUMP + THF) was 67 ± 3 RFU/min, the “initial rate … with inhibitor” value (rHuTS; BVdUMP − THF) was 34 ± 3 RFU/min and the “initial rate … with inhibitor” value (rHuTS; dUMP + THF) was 690 ± 40 nmol/min.

For `CC[C@]1(O)C[C@@H]2CN(CCc3c([nH]c4ccccc34)[C@@](C(=O)OC)(c3cc4c(cc3OC)N(C)[C@H]3[C@@](O)(C(=O)OC)[C@H](OC(C)=O)[C@]5(CC)C=CCN6CC[C@]43[C@@H]65)C2)C1` [Vinblastine], the Interaction [1] was “Syn”, the Interaction (MCF7TDX cells) was “Ant” and the Interaction [2] was “Syn”.

For `O=c1ccn([C@H]2C[C@H](O)[C@@H](COP(=O)(O)O)O2)c(=O)[nH]1` [dUMP], the Ki (Lactobacillus casei TS; [4]) is listed as 2 µM, the Kcat (Lactobacillus casei TS) is listed as 6.4 s⁻¹ and the Km (Lactobacillus casei TS; substrate) is listed as 3 µM. For the same compound, the “initial rate of rHuTS reaction, No Inhibitor” value (rHuTS; dUMP + THF, 30° C., increase in A340) was 1500 ± 20 nmol/min, the Kcat [3] was 0.2 s⁻¹ and the “form of inhibition of the BVdUMP reaction (Michaelis-Menton kinetics)” value [3] was “competitive inhibition”. It also gave a Ki [3, 4] of 17.5 µM and a Km ([3]; substrate) of 7.7 µM.

With `O=[N+]([O-])c1ccc(CSc2ncnc3c2ncn3C2OC(CO)C(O)C2O)cc1` (stereo not shown) [p-Nitrobenzyl-Thioinosine (NBMPR), p-nitrobenzylthioinosine] the Interaction [1] was “Ant”, the “CI (average combination index)” value [1] was 3.93 and the Interaction (MCF7TDX cells) was “Syn”. The “CI (average combination index)” value (MCF7TDX cells) was 0.57, the Interaction [2] was “Ant” and the “CI (average combination index)” value [2] was 1.43.
